In paper PMC9505425, “Targeting of the Mitochondrial TET1 Protein by Pyrrolo[3,2-b]pyrrole Chelators” (International Journal of Molecular Sciences, 2022):
Several values for one entry are separate records, joined by “and”; a condition that tells them apart may be missing. Equal entries are not always repeated.

Assays:
TET1 protein = biological target: T1, TET1 protein (Homo sapiens, UniProt Q8NFU7); assay: Fluorometric TET hydroxylase activity assay with purified TET1 enzyme; format: biochemical
T1 construct: purchased Active Motif, Carlsbad, CA, USA
Experimental: Figure 4 and Table S1 show the dependence of TET1 activity on the concentration of compound 1.
Compounds 1–6 were tested for the inhibition of the total 5mC hydroxylase TET enzyme using a purified TET1 enzyme (Active Motif, Carlsbad, CA, USA) by a fluorometric TET hydroxylase activity quantification kit (Abcam, Cambridge, UK). A total of 25 µg of purified TET1 protein was diluted in a TET assay buffer in a 5 mL volumetric flask, containing α-ketoglutarate and ferric sulfate. The concentrations of ascorbic acid, α-ketoglutarate, and ferric sulfate in the diluted TET assay buffer were 2, 1, and 0.1 mM, respectively. Tested compounds were dissolved in DMSO to obtain a concentration of 0.01 M. DMSO solutions of compounds 1–6 were then diluted with a TET assay buffer to concentrations of 10^−6, 10^−5, 10^−4, and 10^−3 M (in 10% of DMSO). Subsequently, 50 μL of the final TET assay buffer containing the TET1 protein and 5 μL of chelator’s solution was applied to each sample well. In control wells (TET1 without inhibitors), 5 μL of the final TET assay buffer with 10% DMSO was used instead of chelator’s solution. The final concentrations of chelators in a well plate were 10^−7, 10^−6, 10^−5, 10^−4, and 0 M with less than 1% of final concentration of DMSO. The following steps were performed according to manufacturer’s protocol. The TET1 protein converts methylated substrate to hydroxymethylated products, which could be recognized by a specific antibody. We determined the residual activity of the TET1 protein by measuring a fluorescence intensity on an enzyme-linked immunoabsorbent assay reader (ELISA), Infinite® 200 PRO (Tecan, Switzerland, Switzerland), at an excitation wavelength at 530 nm and an emission wavelength at 590 nm. Each concentration was measured twice within one test, and each test was repeated three times. IC50 values of active inhibitors were determined using GraphPad Prism 8 via nonlinear regression.

H-1299 cells = assay: MTT cytotoxicity assay, H-1299; format: cell-based, human
Experimental: (§1) The effects of the tested compounds 1–6 on HF-P4, U-118 MG, H1299, BT-20, and Caov-3 cell lines were evaluated by the MTT assay during 48 h treatment (Table 2 and Tables S2–S31). In all tested compounds, we recognized a difference in cytotoxicity between healthy cells (HF-P4) and cancer cell lines (BT-20, Caov-3, and H-1299). […] In the case of ovarian cancer, the authors discovered oncogenic and poor prognosis roles of TET1 in epithelial ovarian carcinoma (EOC). TET1 is believed to demethylate the epigenome and activate numerous oncogenic pathways in EOC. The aforementioned study presents a new mechanism where TET1 contributes to tumor development through collaboration with CK2α [21]. The overexpression of the TET1 protein was also found in triple negative breast cancer and was associated with an activation of PI3K/mTOR pathway and decreased overall survival.
(§2) A human glioblastoma cell line (U118-MG) and a human non-small-cell lung carcinoma cell line (H1299) were used for the cytotoxicity assay (MTT). Both cell lines were generously supplied by Dr. M. Masařik, PhD, Department of Pathological physiology, Masaryk University, Czech Republic. U118-MG cells were cultivated under standard conditions in Dulbecco’s modified Eagle’s medium (ATCC, Manassas, VA, USA) supplemented with 10% FBS and streptomycin (100 μg/mL) at 37 °C at a 5% CO2 atmosphere. H1299 cells were cultivated under standard conditions in RPMI 1640 (BioTech, Prague, Czech Republic) medium supplemented with 10% FBS and streptomycin (100 μg/mL) at 37 °C at a 5% CO2 atmosphere.
(§3) For the cytotoxicity assay, we used the following cell lines: human glioblastoma cell line U118-MG, human mammary gland/breast cell line BT-20, human ovary adenocarcinoma cell line Caov-3, and non-small-cell lung carcinoma H-1299. As previously mentioned, these cell lines contain a high level of the TET1 protein, which corresponds to a lower overall survival. In addition to these cell cultures, we used the human dermal fibroblast cell line HF-P4 as a healthy control. Determination of cytotoxicity was performed using the MTT [3-(4,5-dimethylthiazol-2-yl)-2,5-diphenyltetrazolium bromide] colorimetric assay. Viable cells from each cell line were cultured in 96-well plates (VWR, Stříbrná Skalice, Czech Republic) at a density of 1.0 × 10^5 cells per well and allowed to grow for 24 h in 200 μL of recommended medium. After a 1-day incubation, the medium was replaced with solutions of compounds 1–6 at concentration ranges of 0.1–20 μM. Each concentration was measured four times within one test, and the entire test was repeated three times. Tested compounds 1–6 were dissolved in DMSO and then diluted with corresponding medium to a final volume of 200 μL (maximum 1% DMSO). After 48 h exposure, cells were treated with 175 μL of MTT solution (P-LAB, Prague, Czech Republic) for 2 h. In the next step, MTT solution was removed, and 125 μL of DMSO (Penta, Prague, Czech Republic) was added to solubilize dark crystals of formazan formed in intact cells, and absorbance was measured at 570 nm by the enzyme-linked immunoabsorbent assay reader Infinite® 200 PRO (Tecan, Männedorf, Switzerland). The final DMSO concentration was smaller than 1% (v/v). The absorbance of untreated cells was considered 100%, and IC50 values were calculated by the GraphPad Prism 8 software. As a parameter for cytotoxicity, we used a concentration that inhibits 50% of cell growth (IC50).

U-118 MG cells = assay: MTT cytotoxicity assay, U-118 MG; format: cell-based, human; conditions: 48 h
Experimental: as §1, §2, §3

T1 sequence (Q8NFU7 whole entry): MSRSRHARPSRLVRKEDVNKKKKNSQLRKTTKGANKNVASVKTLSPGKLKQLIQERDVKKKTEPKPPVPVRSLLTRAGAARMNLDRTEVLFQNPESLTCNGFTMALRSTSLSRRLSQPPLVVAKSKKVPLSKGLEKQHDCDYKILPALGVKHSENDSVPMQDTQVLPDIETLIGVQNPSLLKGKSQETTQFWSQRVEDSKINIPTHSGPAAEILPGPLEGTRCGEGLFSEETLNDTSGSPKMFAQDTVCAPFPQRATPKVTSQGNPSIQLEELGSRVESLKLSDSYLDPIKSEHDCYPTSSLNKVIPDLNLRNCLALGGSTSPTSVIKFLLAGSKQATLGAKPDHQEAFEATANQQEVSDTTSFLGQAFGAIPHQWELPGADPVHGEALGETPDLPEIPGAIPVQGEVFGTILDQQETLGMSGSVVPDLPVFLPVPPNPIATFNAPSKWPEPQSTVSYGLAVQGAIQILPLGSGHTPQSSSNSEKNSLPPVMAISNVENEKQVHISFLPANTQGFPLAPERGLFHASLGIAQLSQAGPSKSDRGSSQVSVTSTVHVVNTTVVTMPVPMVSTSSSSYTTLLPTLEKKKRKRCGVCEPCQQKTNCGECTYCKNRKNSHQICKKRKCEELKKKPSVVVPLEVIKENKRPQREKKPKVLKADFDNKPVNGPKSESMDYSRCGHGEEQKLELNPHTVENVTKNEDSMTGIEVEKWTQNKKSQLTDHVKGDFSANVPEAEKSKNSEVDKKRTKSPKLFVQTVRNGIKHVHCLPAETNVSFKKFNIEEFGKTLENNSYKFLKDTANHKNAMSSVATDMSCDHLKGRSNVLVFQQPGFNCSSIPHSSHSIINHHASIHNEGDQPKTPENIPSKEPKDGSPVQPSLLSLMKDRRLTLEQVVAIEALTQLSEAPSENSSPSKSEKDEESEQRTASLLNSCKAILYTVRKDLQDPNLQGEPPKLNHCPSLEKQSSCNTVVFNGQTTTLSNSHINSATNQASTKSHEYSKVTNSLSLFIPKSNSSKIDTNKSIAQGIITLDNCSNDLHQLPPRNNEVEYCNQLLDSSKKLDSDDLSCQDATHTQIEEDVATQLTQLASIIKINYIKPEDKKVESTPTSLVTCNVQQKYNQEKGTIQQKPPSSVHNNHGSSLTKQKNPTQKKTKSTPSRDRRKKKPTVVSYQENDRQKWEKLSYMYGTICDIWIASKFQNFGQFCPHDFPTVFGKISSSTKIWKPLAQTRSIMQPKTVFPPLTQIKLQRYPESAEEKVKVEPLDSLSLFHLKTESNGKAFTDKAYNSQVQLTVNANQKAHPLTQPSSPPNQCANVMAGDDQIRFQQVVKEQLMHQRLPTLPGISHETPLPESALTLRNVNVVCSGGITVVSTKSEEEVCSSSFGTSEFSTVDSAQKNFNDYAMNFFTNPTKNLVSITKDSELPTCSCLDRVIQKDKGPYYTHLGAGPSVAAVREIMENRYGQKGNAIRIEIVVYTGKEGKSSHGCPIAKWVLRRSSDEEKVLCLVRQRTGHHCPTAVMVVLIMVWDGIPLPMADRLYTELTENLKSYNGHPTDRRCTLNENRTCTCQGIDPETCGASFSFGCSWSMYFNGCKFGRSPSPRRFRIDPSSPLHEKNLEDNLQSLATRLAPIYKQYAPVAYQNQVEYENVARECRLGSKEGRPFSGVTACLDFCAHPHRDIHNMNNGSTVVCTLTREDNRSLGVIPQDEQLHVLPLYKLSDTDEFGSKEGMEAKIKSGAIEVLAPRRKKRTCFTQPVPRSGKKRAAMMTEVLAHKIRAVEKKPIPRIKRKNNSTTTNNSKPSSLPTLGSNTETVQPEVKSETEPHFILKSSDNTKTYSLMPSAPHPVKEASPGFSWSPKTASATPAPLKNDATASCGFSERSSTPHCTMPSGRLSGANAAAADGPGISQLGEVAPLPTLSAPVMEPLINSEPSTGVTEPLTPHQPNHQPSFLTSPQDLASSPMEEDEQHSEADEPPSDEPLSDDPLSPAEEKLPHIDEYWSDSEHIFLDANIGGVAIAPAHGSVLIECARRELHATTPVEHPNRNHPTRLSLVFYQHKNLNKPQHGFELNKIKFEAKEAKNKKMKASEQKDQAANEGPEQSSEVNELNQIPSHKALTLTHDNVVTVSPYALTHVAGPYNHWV

## Cc1ccc(-n2c(-c3ccc(C(=O)NN)cc3)cc3c2cc(-c2ccc(C(=O)NN)cc2)n3-c2ccc(C)cc2)cc1 [Compound 1]
TET1 protein; Log c 4
  average residual TET activity (%): 5.108%
TET1 protein; Log c 5
  average residual TET activity (%): 19.97%
TET1 protein; Log c 6
  average residual TET activity (%): 56.08%
TET1 protein; Log c 7
  average residual TET activity (%): 82.59%
H-1299 cells; H-1299, 100 nM, 48 h, repeats, 0.1 µM
  Cell viability %: 74.42% and 77.2%
H-1299 cells; H-1299, 500 nM, 48 h, repeats, 0.5 µM
  Cell viability %: 114.5756% and 80.35% and 108.7959%
H-1299 cells; H-1299, 750 nM, 48 h, repeats, 0.75 µM
  Cell viability %: 97.3% and 84.13% and 122.0664%
H-1299 cells; H-1299, 1 uM, 48 h, repeats, 1 µM
  Cell viability %: 81.23% and 63.3%
H-1299 cells; H-1299, 2.5 uM, 48 h, repeats, 2.5 µM
  Cell viability %: 76.07% and 72.39%
H-1299 cells; H-1299, 5 uM, 48 h, repeats, 5 µM
  Cell viability %: 61.74% and 69.23%
H-1299 cells; H-1299, 7.5 uM, 48 h, repeats, 7.5 µM
  Cell viability %: 36.84% and 36.67%
H-1299 cells; H-1299, 10 uM, 48 h, repeats, 10 µM
  Cell viability %: 36.64% and 31.8986%
H-1299 cells; H-1299, 15 uM, 48 h, repeats, 15 µM
  Cell viability %: 23.04% and 23.96%
H-1299 cells; H-1299, 20 uM, 48 h, repeats, 20 µM
  Cell viability %: 17.01% and 14.68%
H-1299 cells; Homo sapiens, NCI-H1299, 48 h, H-1299, 100 nM, repeats, read-out: Cell viability %
  viability at 0.1 µM: 86.7%
H-1299 cells; Homo sapiens, NCI-H1299, 48 h, H-1299, 1 uM, repeats, read-out: Cell viability %
  viability at 1 µM: 69.9%
H-1299 cells; Homo sapiens, NCI-H1299, 48 h, H-1299, 2.5 uM, repeats, read-out: Cell viability %
  viability at 2.5 µM: 68%
H-1299 cells; Homo sapiens, NCI-H1299, 48 h, H-1299, 5 uM, repeats, read-out: Cell viability %
  viability at 5 µM: 57.7%
H-1299 cells; Homo sapiens, NCI-H1299, 48 h, H-1299, 7.5 uM, repeats, read-out: Cell viability %
  viability at 7.5 µM: 38.4%
H-1299 cells; Homo sapiens, NCI-H1299, 48 h, H-1299, 10 uM, repeats, read-out: Cell viability %
  viability at 10 µM: 35.2%
H-1299 cells; Homo sapiens, NCI-H1299, 48 h, H-1299, 15 uM, repeats, read-out: Cell viability %
  viability at 15 µM: 23.9%
H-1299 cells; Homo sapiens, NCI-H1299, 48 h, H-1299, 20 uM, repeats, read-out: Cell viability %
  viability at 20 µM: 19.2%
H-1299 cells; Homo sapiens, NCI-H1299, MTT, 48 h
  IC50: 6.89 µM
U-118 MG cells; Homo sapiens, U-118-MG, U-118 MG, 100 nM, repeats, read-out: Cell viability %
  viability at 0.1 µM: 74.9%
U-118 MG cells; Homo sapiens, U-118-MG, U-118 MG, 500 nM, repeats, read-out: Cell viability %
  viability at 0.5 µM: 81.2%
U-118 MG cells; Homo sapiens, U-118-MG, U-118 MG, 750 nM, repeats, read-out: Cell viability %
  viability at 0.75 µM: 75.3%
U-118 MG cells; Homo sapiens, U-118-MG, U-118 MG, 1 uM, repeats, read-out: Cell viability %
  viability at 1 µM: 61.6%
U-118 MG cells; Homo sapiens, U-118-MG, U-118 MG, 2.5 uM, repeats, read-out: Cell viability %
  viability at 2.5 µM: 59.8%
U-118 MG cells; Homo sapiens, U-118-MG, U-118 MG, 5 uM, repeats, read-out: Cell viability %
  viability at 5 µM: 64.5%
U-118 MG cells; Homo sapiens, U-118-MG, U-118 MG, 7.5 uM, repeats, read-out: Cell viability %
  viability at 7.5 µM: 65.9%
U-118 MG cells; Homo sapiens, U-118-MG, U-118 MG, 10 uM, repeats, read-out: Cell viability %
  viability at 10 µM: 49.8%
U-118 MG cells; Homo sapiens, U-118-MG, U-118 MG, 15 uM, repeats, read-out: Cell viability %
  viability at 15 µM: 52.9%
U-118 MG cells; Homo sapiens, U-118-MG, U-118 MG, 20 uM, repeats, read-out: Cell viability %
  viability at 20 µM: 32.4%
U-118 MG cells; Homo sapiens, U-118-MG, MTT
  IC50: > 20 µM
U-118 MG cells; U-118 MG, 100 nM, repeats, 0.1 µM
  Cell viability %: 89.42% and 92.96%
U-118 MG cells; U-118 MG, 500 nM, repeats, 0.5 µM
  Cell viability %: 77.57% and 78.28%
U-118 MG cells; U-118 MG, 750 nM, repeats, 0.75 µM
  Cell viability %: 75.76% and 76.03%
U-118 MG cells; U-118 MG, 1 uM, repeats
  Cell viability %: 65.25% and 66.5%
U-118 MG cells; U-118 MG, 2.5 uM, repeats
  Cell viability %: 71.64% and 61.0448%
U-118 MG cells; U-118 MG, 5 uM, repeats
  Cell viability %: 72.2848% and 61.2%
U-118 MG cells; U-118 MG, 7.5 uM, repeats
  Cell viability %: 73.35% and 73.21%
U-118 MG cells; U-118 MG, 10 uM, repeats
  Cell viability %: 65.4465% and 62.16%
U-118 MG cells; U-118 MG, 15 uM, repeats
  Cell viability %: 49.75% and 52.18%
U-118 MG cells; U-118 MG, 20 uM, repeats
  Cell viability %: 38.37% and 42.77%
